Measured values reported in patent publication US9597364B2, “Treatment of withdrawal symptoms to aid in nicotine use cessation with Passiflora incarnata” (Campbell University, priority 2011, dated 2017).

Experiments:
Male Wistar rats [1] = settings: 0.4 mg/kg nicotine s.c.
Protocol: Male Wistar rats (Charles River, Raleigh, N.C.) were provided with food and water ad libitum on a 12 hour light/dark cycle for 2-3 weeks before beginning any treatments. For all experiments, rats were approximately 45-65 days old and weighed between 148 and 195 g at the beginning of an experiment. Injections of nicotine or its vehicle (water) were subcutaneous (s.c.) administered at 0.4 mg/kg nicotine (Sigma Aldrich, St. Louis, Mo.) and 2 ml/kg. Injections of aqueous passion flower extract (Nature's Answer, Hauppage, N.Y.) or vehicle (1:1 glycerin:water) were intraperitoneal (i.p.) administered at 800 mg/kg and 0.16 ml/kg.
Drug-naive rats were placed individually in an open field for determination of spontaneous activity using the Limelight video tracking system (ActiMetrics, Wilmette, Ill.). Each rat was monitored in the open field for 30 minutes to determine the time course of habituation. Immediately afterward, each rat was injected with vehicle that was subsequently used for nicotine injection at 2 ml/kg and the rats were monitored for 50 minutes. Then each rat was removed from the chamber briefly to be injected s.c. with 0.4 mg/kg nicotine and monitored for another 90 minutes.
Mean velocity (in cm/s) over each 1 sec period was extracted using the LimeLight software and that data was used to calculate the average and SEM of the mean velocities for each 5 minute interval for each treatment group. Figures show the time at the end of the 5 minute period (e.g., 10 minutes is the 5-10 minute interval). In the preliminary assay of nicotine versus vehicle, there were 6 rats and in the chronic nicotine study there were 8-10 rats in each group.

Male Wistar rats [2] = experiment: Effect of passion flower extract on nicotine sensitization (expression of motor sensitization, open field); type: in vivo, rat; settings: 0.4 mg/kg s.c. nicotine days 1-4, challenge day 5
Protocol: To produce nicotine sensitization, rats were injected once/day for 4 consecutive days with either nicotine or vehicle. On day 5, known as the test day, rats were divided into four groups; half of those that had received vehicle on days 1-4 were pre-treated with passion flower extract (vehicle-passion flower group) and the other half with vehicle (vehicle-vehicle group). Analogously, half of the rats that received nicotine on days 1-4 received a pre-treatment of i.p. 1:1 water:glycerin (nicotine-vehicle group) on day 5, while the other half was given a pre-treatment of i.p. passion flower extract (nicotine-passionflower group). Each rat was monitored in the open field for 100 consecutive minutes, starting approximately 23 hours after the day 4 nicotine treatment. Before any injections on day 5, rats were placed in the activity chambers until an injection of passion flower extract or vehicle at 25 minutes, then monitored for another 25 minutes, at which point all rats received an injection of nicotine and were monitored for 50 additional minutes.

## CN1CCCC1c1cccnc1 (stereo not shown) [nicotine]
Male Wistar rats [1]
  time of peak activity after injection: 5 to 15 min
Male Wistar rats [1]; intervals between 10 and 35 minutes except 15-20 minutes, 2-way ANOVA, Bonferroni p<0.05
  activity compared with vehicle treatment: significantly different from vehicle treatment
Male Wistar rats [1]; vehicle average 0.8±0.1 cm/s
  spontaneous activity (velocity) during the 10-35 minute intervals, average: 1.9±0.2 cm/s
Male Wistar rats [2]
  activity of nicotine-sensitized group (nicotine-vehicle) after challenge dose of nicotine, compared with vehicle-vehicle group: significantly greater activity than the vehicle-vehicle group
